Assay results published in the NIST ThermoML archive (doi:10.1016/j.jct.2018.07.011).

Experiment: relative permittivity at various frequencies (dimensionless)
Details: Reentrant cavity resonator

F/C=C/C(F)(F)F [trans-1,3,3,3-tetrafluoropropene]
Details | relative permittivity
248.98 K, 2078 kPa, Liquid, Frequency=200 MHz | 3.44336
249 K, 4121 kPa, Liquid, Frequency=200 MHz | 3.45458
249.02 K, 6251 kPa, Liquid, Frequency=200 MHz | 3.46583
249.06 K, 8448 kPa, Liquid, Frequency=200 MHz | 3.47696
249.07 K, 10680 kPa, Liquid, Frequency=200 MHz | 3.48805
273.01 K, 7894 kPa, Liquid, Frequency=200 MHz | 3.19554
273.19 K, 10470 kPa, Liquid, Frequency=200 MHz | 3.21071
273.23 K, 4627 kPa, Liquid, Frequency=200 MHz | 3.17426
273.36 K, 1598 kPa, Liquid, Frequency=200 MHz | 3.15254
273.46 K, 486 kPa, Liquid, Frequency=200 MHz | 3.14403
273.66 K, 73.9 kPa, Gas, Frequency=340 MHz | 1.00498
274.29 K, 139 kPa, Gas, Frequency=340 MHz | 1.00927
297.59 K, 79.6 kPa, Gas, Frequency=340 MHz | 1.00458
297.59 K, 240.4 kPa, Gas, Frequency=340 MHz | 1.01364
297.6 K, 349.7 kPa, Gas, Frequency=340 MHz | 1.02033
297.63 K, 5735 kPa, Liquid, Frequency=200 MHz | 2.92689
297.63 K, 10470 kPa, Liquid, Frequency=200 MHz | 2.96416
297.64 K, 140.5 kPa, Gas, Frequency=340 MHz | 1.00794
297.65 K, 7982 kPa, Liquid, Frequency=200 MHz | 2.94513
297.67 K, 1491 kPa, Liquid, Frequency=200 MHz | 2.88752
297.67 K, 3490 kPa, Liquid, Frequency=200 MHz | 2.90668
321.55 K, 211.2 kPa, Gas, Frequency=340 MHz | 1.01063
321.63 K, 210.1 kPa, Gas, Frequency=340 MHz | 1.0105
321.76 K, 3999 kPa, Liquid, Frequency=200 MHz | 2.66845
321.78 K, 7249 kPa, Liquid, Frequency=200 MHz | 2.70714
321.79 K, 10980 kPa, Liquid, Frequency=200 MHz | 2.74469
345.96 K, 227.2 kPa, Gas, Frequency=340 MHz | 1.01022
345.97 K, 225.2 kPa, Gas, Frequency=340 MHz | 1.01005
346.5 K, 4377 kPa, Liquid, Frequency=200 MHz | 2.42553
346.53 K, 6645 kPa, Liquid, Frequency=200 MHz | 2.46858
346.59 K, 9481 kPa, Liquid, Frequency=200 MHz | 2.51185
365.54 K, 236.9 kPa, Gas, Frequency=340 MHz | 1.00981
365.79 K, 239.2 kPa, Gas, Frequency=340 MHz | 1.00997
365.83 K, 4248 kPa, Liquid, Frequency=200 MHz | 2.19675
365.87 K, 6046 kPa, Liquid, Frequency=200 MHz | 2.25994
365.93 K, 9015 kPa, Liquid, Frequency=200 MHz | 2.33081

C=C(F)C(F)(F)F [2,3,3,3-tetrafluoro-1-propene]
Details | relative permittivity
248.51 K, 10580 kPa, Liquid, Frequency=120 MHz | 11.2191
248.71 K, 8271 kPa, Liquid, Frequency=120 MHz | 11.1539
248.95 K, 6475 kPa, Liquid, Frequency=120 MHz | 11.0761
249.16 K, 4746 kPa, Liquid, Frequency=120 MHz | 11.0131
249.37 K, 3089 kPa, Liquid, Frequency=120 MHz | 10.9467
249.67 K, 10580 kPa, Liquid, Frequency=120 MHz | 11.1976
249.71 K, 8272 kPa, Liquid, Frequency=120 MHz | 11.1217
249.75 K, 6476 kPa, Liquid, Frequency=120 MHz | 11.0617
249.76 K, 4750 kPa, Liquid, Frequency=120 MHz | 10.9998
249.77 K, 3089 kPa, Liquid, Frequency=120 MHz | 10.9379
273.14 K, 10470 kPa, Liquid, Frequency=120 MHz | 9.47583
273.41 K, 10970 kPa, Liquid, Frequency=120 MHz | 9.48739
273.5 K, 7893 kPa, Liquid, Frequency=120 MHz | 9.37498
273.59 K, 8235 kPa, Liquid, Frequency=120 MHz | 9.38477
273.69 K, 4628 kPa, Liquid, Frequency=120 MHz | 9.24224
273.79 K, 5794 kPa, Liquid, Frequency=120 MHz | 9.28399
273.95 K, 1601 kPa, Liquid, Frequency=120 MHz | 9.10293
274.32 K, 3368 kPa, Liquid, Frequency=120 MHz | 9.17004
275.05 K, 1116 kPa, Liquid, Frequency=120 MHz | 9.04939
297.54 K, 7675 kPa, Liquid, Frequency=120 MHz | 7.93035
297.56 K, 247.8 kPa, Gas, Frequency=340 MHz | 1.03846
297.57 K, 4942 kPa, Liquid, Frequency=120 MHz | 7.79441
297.57 K, 10760 kPa, Liquid, Frequency=120 MHz | 8.06626
297.58 K, 2537 kPa, Liquid, Frequency=120 MHz | 7.65994
297.61 K, 259.6 kPa, Gas, Frequency=340 MHz | 1.04022
297.63 K, 225.5 kPa, Gas, Frequency=340 MHz | 1.03469
297.67 K, 100.9 kPa, Gas, Frequency=340 MHz | 1.01502
321.5 K, 203 kPa, Gas, Frequency=340 MHz | 1.02682
321.53 K, 644.4 kPa, Gas, Frequency=340 MHz | 1.09027
321.55 K, 817.8 kPa, Gas, Frequency=340 MHz | 1.11132
321.63 K, 4262 kPa, Liquid, Frequency=120 MHz | 6.51012
321.65 K, 7089 kPa, Liquid, Frequency=120 MHz | 6.70204
321.65 K, 10590 kPa, Liquid, Frequency=120 MHz | 6.89633
345.73 K, 218.5 kPa, Gas, Frequency=340 MHz | 1.02515
345.74 K, 874.9 kPa, Gas, Frequency=340 MHz | 1.10115
345.75 K, 693 kPa, Gas, Frequency=340 MHz | 1.08291
345.89 K, 4404 kPa, Liquid, Frequency=120 MHz | 5.30782
345.93 K, 6822 kPa, Liquid, Frequency=120 MHz | 5.57121
346.01 K, 10290 kPa, Liquid, Frequency=120 MHz | 5.83949
365.22 K, 908.6 kPa, Gas, Frequency=340 MHz | 1.09359
365.25 K, 713.8 kPa, Gas, Frequency=340 MHz | 1.07604
365.3 K, 230.9 kPa, Gas, Frequency=340 MHz | 1.0241

[Ar] [argon]
Gas, Frequency=340 MHz
Details | relative permittivity
272.94 K, 8533 kPa | 1.05077
273.04 K, 5986 kPa | 1.03462
273.17 K, 3359 kPa | 1.01869
297.44 K, 9503 kPa | 1.05146
297.45 K, 3675 kPa | 1.01893
297.45 K, 6614 kPa | 1.03509
321.92 K, 4005 kPa | 1.01899
321.93 K, 7248 kPa | 1.03523

O=C=O [carbon dioxide]
Details | relative permittivity
234.7 K, 5002 kPa, Liquid, Frequency=270 MHz | 1.73109
234.76 K, 4012 kPa, Liquid, Frequency=270 MHz | 1.729
234.77 K, 2015 kPa, Liquid, Frequency=270 MHz | 1.72473
234.78 K, 3015 kPa, Liquid, Frequency=270 MHz | 1.72689
235.13 K, 6031 kPa, Liquid, Frequency=270 MHz | 1.73287
248.98 K, 4006 kPa, Liquid, Frequency=270 MHz | 1.68089
249.12 K, 3018 kPa, Liquid, Frequency=270 MHz | 1.67791
249.15 K, 2012 kPa, Liquid, Frequency=270 MHz | 1.67486
251.38 K, 6015 kPa, Liquid, Frequency=270 MHz | 1.68401
251.72 K, 5017 kPa, Liquid, Frequency=270 MHz | 1.6809
252.7 K, 6996 kPa, Liquid, Frequency=270 MHz | 1.685
273.6 K, 7004 kPa, Liquid, Frequency=270 MHz | 1.59893
273.75 K, 6019 kPa, Liquid, Frequency=270 MHz | 1.5936
274.12 K, 5019 kPa, Liquid, Frequency=270 MHz | 1.58749
274.66 K, 4024 kPa, Liquid, Frequency=270 MHz | 1.58054
297.38 K, 1176 kPa, Gas, Frequency=340 MHz | 1.01138
297.57 K, 7002 kPa, Liquid, Frequency=270 MHz | 1.45192
297.6 K, 5992 kPa, Gas, Frequency=340 MHz | 1.10291
297.61 K, 6991 kPa, Liquid, Frequency=270 MHz | 1.45145
297.64 K, 2005 kPa, Gas, Frequency=340 MHz | 1.02052
297.7 K, 3002 kPa, Gas, Frequency=340 MHz | 1.03319
297.73 K, 3998 kPa, Gas, Frequency=340 MHz | 1.0487
297.75 K, 4570 kPa, Gas, Frequency=340 MHz | 1.05962
